Assay results published in patent US7696186B2, “7,9-substituted tetracycline compounds” (Paratek Pharmaceuticals, Inc., priority 2001, dated 2010).

Key:
Assay in all cases: In Vitro Minimum Inhibitory Concentration (MIC) Assay
Type in all cases: cell-based
Design in all cases: key: compounds which were good inhibitors of growth of a particular bacteria are indicated with *; compounds which were very good inhibitors of a particular bacteria are indicated with **; compounds with were particularly good inhibitors of a particular bacteria are indicated with ***
Conditions in all cases: CAMHB, 35° C., approximately 18 hr
S. aureus = test system: S. aureus
Method: (§1) In Vitro Minimum Inhibitory Concentration (MIC) Assay
(§2) The following assay is used to determine the efficacy of minocycline compounds against common bacteria. 2 mg of each compound is dissolved in 100 μl of DMSO. The solution is then added to cation-adjusted Mueller Hinton broth (CAMHB), which results in a final compound concentration of 200 μg per ml. The minocycline compound solutions are diluted to 50 μL volumes, with a test compound concentration of 0.098 μg/ml. Optical density (OD) determinations are made from fresh log-phase broth cultures of the test strains. Dilutions are made to achieve a final cell density of 1×10^6 CFU/ml. At OD=1, cell densities for different genera should be approximately:
(§3) 50 μl of the cell suspensions are added to each well of microtiter plates. The final cell density should be approximately 5×10^5 CFU/ml. These plates are incubated at 35° C. in an ambient air incubator for approximately 18 hr. The plates are read with a microplate reader and are visually inspected when necessary. The MIC is defined as the lowest concentration of the minocycline compound that inhibits growth. Compounds of the invention indicate good inhibition of growth.
(§4) In Table 2, compounds which were good inhibitors of growth of a particular bacteria are indicated with *, compounds which were very good inhibitors of a particular bacteria are indicated with **, and compounds with were particularly good inhibitors of a particular bacteria are indicated with ***.

E. coli = test system: E. coli
Method: as §1, §2, §3, §4

E. hirae = test system: E. hirae
Method: as §1, §2, §3, §4

| SMILES | S. aureus (inhibition of growth, MIC assay) (S. aureus) | E. coli (inhibition of growth, MIC assay) (E. coli) | E. hirae (inhibition of growth, MIC assay) (E. hirae) |
| --- | --- | --- | --- |
| CCc1cc(C#CC2=CCCCC2)c(O)c2c1C[C@H]1C[C@H]3[C@H](N(C)C)C(O)=C(C(N)=O)C(=O)[C@@]3(O)C(O)=C1C2=O [Compound HO, 7-Ethyl-9-Cyclohexenylethynyl-Sancycline] | *** | * | *** |
| CN(C)[C@@H]1C(O)=C(C(N)=O)C(=O)[C@@]2(O)C(O)=C3C(=O)c4c(O)c(CN)cc(-c5ccc(F)cc5)c4C[C@H]3C[C@@H]12 [HM] | ** | ** | ** |
| CC(=O)NCc1cc(-c2ccc(F)cc2)c2c(c1O)C(=O)C1=C(O)[C@]3(O)C(=O)C(C(N)=O)=C(O)[C@@H](N(C)C)[C@@H]3C[C@@H]1C2 [HT] | ** | * | ** |
| CN(C)[C@@H]1C(O)=C(C(N)=O)C(=O)[C@@]2(O)C(O)=C3C(=O)c4c(O)c(CN5C(=O)c6ccccc6C5=O)cc(CN5C(=O)c6ccccc6C5=O)c4C[C@H]3C[C@@H]12 [HB] | ** | * | ** |
| CC(=O)NCc1cc(-c2ccccc2)c2c(c1O)C(=O)C1=C(O)[C@]3(O)C(=O)C(C(N)=O)=C(O)[C@@H](N(C)C)[C@@H]3C[C@@H]1C2 [HX] | ** | * | *** |
| CN(C)[C@@H]1C(O)=C(C(N)=O)C(=O)[C@@]2(O)C(O)=C3C(=O)c4c(O)c(-c5ccc6c(c5)OCO6)cc(-c5ccc6c(c5)OCO6)c4C[C@H]3C[C@@H]12 [Compound HZ, 7,9-Bis(3,4-Methylenedioxyphenyl)-Sancycline] | *** | * | ** |
| CCCCCCc1cc(CN)c(O)c2c1C[C@H]1C[C@H]3[C@H](N(C)C)C(O)=C(C(N)=O)C(=O)[C@@]3(O)C(O)=C1C2=O [HS] | ** | *** | *** |
| CN(C)[C@@H]1C(O)=C(C(N)=O)C(=O)[C@@]2(O)C(O)=C3C(=O)c4c(O)c(C(C)(C)C)cc(-c5cccc([N+](=O)[O-])c5)c4C[C@H]3C[C@@H]12 [HP] | ** | * | *** |
| CN(C)[C@@H]1C(O)=C(C(N)=O)C(=O)[C@@]2(O)C(O)=C3C(=O)c4c(O)c(CNC(=O)C5CCCO5)cc(-c5ccc(F)cc5)c4C[C@H]3C[C@@H]12 (stereo partly drawn) [HR] | ** | * | ** |
| CCCCc1cc(CN)c(O)c2c1C[C@H]1C[C@H]3[C@H](N(C)C)C(O)=C(C(N)=O)C(=O)[C@@]3(O)C(O)=C1C2=O [HQ] | ** | ** | ** |
| CCCCCc1cc(CN2C(=O)c3ccccc3C2=O)c(O)c2c1C[C@H]1C[C@H]3[C@H](N(C)C)C(O)=C(C(N)=O)C(=O)[C@@]3(O)C(O)=C1C2=O [HU] | ** | * | *** |

Other lines, results leading:

| S. aureus (inhibition of growth, MIC assay) (S. aureus) | E. coli (inhibition of growth, MIC assay) (E. coli) | E. hirae (inhibition of growth, MIC assay) (E. hirae) | SMILES |
| --- | --- | --- | --- |
| ** | * | ** | CN(C)[C@@H]1C(O)=C(C(N)=O)C(=O)[C@@]2(O)C(O)=C3C(=O)c4c(O)c(CN5C(=O)c6ccccc6C5=O)cc(-c5cccc([N+](=O)[O-])c5)c4C[C@H]3C[C@@H]12 [HK] |
| *** | ** | *** | CCc1cc(CC)c2c(c1O)C(=O)C1=C(O)[C@]3(O)C(=O)C(C(N)=O)=C(O)[C@@H](N(C)C)[C@@H]3C[C@@H]1C2 [HV] |
| * | * | * | COc1ccc(C#Cc2cc(C#Cc3ccc(OC)cc3)c3c(c2O)C(=O)C2=C(O)[C@]4(O)C(=O)C(C(N)=O)=C(O)[C@@H](N(C)C)[C@@H]4C[C@@H]2C3)cc1 [HC] |
| ** | * | * | CCc1cc(CN)c(O)c2c1C[C@H]1C[C@H]3[C@H](N(C)C)C(O)=C(C(N)=O)C(=O)[C@@]3(O)C(O)=C1C2=O [HG] |
| * | * | ** | CCc1cc(CNC(=O)c2cccnc2)c(O)c2c1C[C@H]1C[C@H]3[C@H](N(C)C)C(O)=C(C(N)=O)C(=O)[C@@]3(O)C(O)=C1C2=O [HF] |
| ** | * | ** | CCc1cc(C#Cc2ccc(OC)cc2)c(O)c2c1C[C@H]1C[C@H]3[C@H](N(C)C)C(O)=C(C(N)=O)C(=O)[C@@]3(O)C(O)=C1C2=O [HW] |
| ** | ** | ** | CCCc1cc(CN)c(O)c2c1C[C@H]1C[C@H]3[C@H](N(C)C)C(O)=C(C(N)=O)C(=O)[C@@]3(O)C(O)=C1C2=O [HL] |
| * | * | * | CC#Cc1cc(C#CC)c2c(c1O)C(=O)C1=C(O)[C@]3(O)C(=O)C(C(N)=O)=C(O)[C@@H](N(C)C)[C@@H]3C[C@@H]1C2 [IA] |
| ** | * | ** | CN(C)[C@@H]1C(O)=C(C(N)=O)C(=O)[C@@]2(O)C(O)=C3C(=O)c4c(O)c(CN)cc(-c5ccccc5)c4C[C@H]3C[C@@H]12 [HE] |
| ** | * | ** | CN(C)[C@@H]1C(O)=C(C(N)=O)C(=O)[C@@]2(O)C(O)=C3C(=O)c4c(O)c(CN)cc(-c5cccc([N+](=O)[O-])c5)c4C[C@H]3C[C@@H]12 [HJ] |
| *** | * | ** | CN(C)[C@@H]1C(O)=C(C(N)=O)C(=O)[C@@]2(O)C(O)=C3C(=O)c4c(O)c(CNC(=O)CCl)cc(-c5ccccc5)c4C[C@H]3C[C@@H]12 [HN] |
| ** | * | ** | CN(C)[C@@H]1C(O)=C(C(N)=O)C(=O)[C@@]2(O)C(O)=C3C(=O)c4c(O)c(CNC(=O)c5cccnc5)cc(CCC5CCCCC5)c4C[C@H]3C[C@@H]12 [HI] |
